Laboratory results published in ChEMBL document CHEMBL1138495, “Inhibition of subgenomic hepatitis C virus RNA replication by acridone derivatives: identification of an NS3 helicase inhibitor” (J Med Chem, 2009).
Values after ≈ are worked out from the molar mass of the structure shown. Active and inactive are the calls of the source. No cut-off for these calls is given here.

What was measured:
[1] = Cytostatic activity against human HuH5.2 after 3 days by MTS/PMS assay; assay type: ADME, Huh-5-2; details: HuH5.2 cells
[2] = Inhibition of ATPase activity of HCV […] expressed in Escherichia coli; design: species or system Hepacivirus hominis
Hepatitis C virus = assay: Antiviral activity against HCV infected in human HuH5.2 assessed as inhibition of viral RNA synthesis after 4 days by Steady-Glo-luciferase assay; assay type: functional, organism-based, Hepacivirus hominis; details: Huh-5-2, 96 h
Hepacivirus hominis = assay: Inhibition of HCV recombinant NS5B RNA polymerase expressed in Escherichia coli up to 100 uM by liquid scintillation counter

| Compound | IC50 [2] [µM] | EC50 (Hepatitis C virus) [mg/L] | Activity (Hepacivirus hominis) | CC50 at 72 h [1] [mg/L] |
| --- | --- | --- | --- | --- |
| COc1cc(OCC(=O)O)c2c(=O)c3cc(N)c(N4CCN(c5ccccn5)CC4)cc3n(C)c2c1 | > 1000 | 35 (≈ 71.5 µM) | inactive | > 50 |
| COc1cc2c(cc1N)c(=O)c1c(O)cc(O)cc1n2C | > 1000 | 5 (≈ 17.5 µM) | inactive | 26 (≈ 90.8 µM) |
| COc1cc(O)c2c(=O)c3cc(N)c(OC)cc3n(C)c2c1 | > 1000 | 18 (≈ 59.9 µM) | inactive | > 50 |
| COc1ccc(C(=O)c2ccc(N3CCN(c4ccccn4)CC3)c(N)c2)c(O)c1 | > 1000 | 3.7 (≈ 9.15 µM) | inactive | > 50 |
| Nc1cc2c(=O)c3c(O)cc(O)cc3[nH]c2cc1Cl | > 1000 | 19 (≈ 68.7 µM) | inactive | 25 (≈ 90.4 µM) |
| COc1cccc2c1c(=O)c1cc(N)c(N3CCN(c4ccccn4)CC3)cc1n2C | > 1000 | 12.5 (≈ 30.1 µM) | inactive | 28.5 (≈ 68.6 µM) |
| Cc1cc(C)c2c(=O)c3cc(N)c(N4CCN(c5ccccn5)CC4)cc3n(C)c2c1C | > 1000 | 5 (≈ 11.7 µM) | inactive | > 50 |
| Cn1ccc(=O)c2cc(N)c(N3CCN(c4ccccn4)CC3)cc21 | > 1000 | 11 (≈ 32.8 µM) | inactive | > 33 |
| CCn1c2cc(Cl)c(N)cc2c(=O)c2c(OC)cc(OC)cc21 | > 1000 | 5 (≈ 15 µM) | inactive | 14 (≈ 42.1 µM) |
| COc1cc(OC)c2c(=O)c3cc(N)c(N4CCN(c5ncccn5)CC4)cc3n(C)c2c1 | > 1000 | > 50 | inactive | > 50 |
| COc1cc(OC)c2c(=O)c3cc(N)c(N4CCN(c5ccccn5)CC4)cc3[nH]c2c1 | > 1000 | 4 (≈ 9.27 µM) | inactive | 19 (≈ 44 µM) |
| CCn1c2cc(N3CCN(c4ccccn4)CC3)c(N)cc2c(=O)c2c(OC)cc(OC)cc21 | > 1000 | 4 (≈ 8.7 µM) | inactive | 11 (≈ 23.9 µM) |
| COc1cc(OC)c2c(=O)c3cc(N)c(N4CCN(c5nc6ccccc6o5)CC4)cc3n(C)c2c1 | > 1000 | 27 (≈ 55.6 µM) | inactive | > 50 |
| COc1cc(OC)c2c(=O)c3cc(N(C)C)c(N4CCN(c5ccccn5)CC4)cc3n(C)c2c1 | > 1000 | 1 (≈ 2.11 µM) | inactive | 3 (≈ 6.33 µM) |

Now from value to molecule, other results behind:

| IC50 [2] [µM] | EC50 (Hepatitis C virus) [mg/L] | Activity (Hepacivirus hominis) | Compound | CC50 at 72 h [1] [mg/L] |
| --- | --- | --- | --- | --- |
| > 1000 | 6.6 (≈ 15.8 µM) | inactive | COc1ccc(C(=O)c2ccc(N3CCN(c4ccccn4)CC3)c(N)c2)c(OC)c1 | 15 (≈ 35.8 µM) |
| > 1000 | 5 (≈ 16.4 µM) | inactive | CCn1c2cc(Cl)c(N)cc2c(=O)c2c(O)cc(O)cc21 | > 50 |
| > 1000 | 4.5 (≈ 14.1 µM) | inactive | CCn1c2cc(Cl)c(N)cc2c(=O)c2c(O)cc(OC)cc21 | > 50 |
| > 1000 | 17 (≈ 35.9 µM) | inactive | CCCOc1cc(OC)cc2c1c(=O)c1cc(N)c(N3CCN(c4ccccn4)CC3)cc1n2C | > 50 |
| > 1000 | 16 (≈ 33.7 µM) | inactive | COc1cc(OC)c2c(=O)c3cc(N)c(N4CCN(c5ccccc5OC)CC4)cc3n(C)c2c1 | > 50 |
| > 1000 | > 50 | inactive | COc1cc(OC)c2c(=O)c3cc(N)c(N4CCN(c5ccc(C(F)(F)F)cn5)CC4)cc3n(C)c2c1 | > 50 |
| > 1000 | 4.1 (≈ 9.77 µM) | inactive | COc1cc(OC)cc(N(C)c2ccc(N)c(N3CCN(c4ccccn4)CC3)c2)c1 | 7.2 (≈ 17.2 µM) |
| > 1000 | 17 (≈ 37.2 µM) | inactive | Cn1c2cc(N3CCN(c4nc5ccccc5o4)CC3)c(N)cc2c(=O)c2c(O)cc(O)cc21 | > 50 |
